Measured values: ChEMBL document CHEMBL1135006, “Synthesis and biological evaluation of novel 2-(1H-imidazol-4-yl)cyclopropane carboxylic acids: key intermediates for H3 histamine receptor ligands” (Bioorg Med Chem Lett, 2002)

Biological target: Histamine H3 receptor (Rattus norvegicus) (UniProt Q9QYN8)
Assay: Inhibition of the specific binding of [3H](R)-alpha-methylhistamine ([3H]RMHA) to Histamine H3 receptor in rat brain membranes at 10e-8 M

Sequence of Histamine H3 receptor (Rattus norvegicus) (Q9QYN8 whole entry, looked up): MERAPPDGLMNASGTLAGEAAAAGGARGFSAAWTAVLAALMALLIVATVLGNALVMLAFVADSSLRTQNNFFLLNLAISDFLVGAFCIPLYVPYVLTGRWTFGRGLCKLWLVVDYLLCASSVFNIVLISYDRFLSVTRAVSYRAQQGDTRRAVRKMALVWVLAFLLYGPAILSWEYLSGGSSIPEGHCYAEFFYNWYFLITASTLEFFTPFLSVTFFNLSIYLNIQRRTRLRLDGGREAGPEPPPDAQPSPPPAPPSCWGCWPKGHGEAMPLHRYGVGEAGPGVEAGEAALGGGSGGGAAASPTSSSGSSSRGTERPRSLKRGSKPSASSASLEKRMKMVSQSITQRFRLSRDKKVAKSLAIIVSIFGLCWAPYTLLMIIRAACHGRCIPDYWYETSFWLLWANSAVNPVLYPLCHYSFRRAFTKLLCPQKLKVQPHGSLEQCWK

Row | inhibition | Compound
1 | 33.5% | OC/C=C/c1ccccc1
2 | 10% | C/C=C/CO
3 | 3.7% | C/C=C\CO
4 | 4.3% | OC/C=C\c1ccccc1

Row | Compound | inhibition
5 | O=C(O)C1C[C@@H]1c1c[nH]cn1 (single isomer, unassigned) | 11.6%
